Converted amounts (≈) assume the structure as drawn. Like-named read-outs stand apart in the source and are kept apart here.

The term MIC denotes the lowest concentration found to suppress growth. A word on the melting point: it is the temperature of the solid-liquid transition. The zone of inhibition is the size of the clear area around the sample on an inoculated plate.

The test system of series [1] is Pseudomonas aeruginosa (NCIM 5029). Description: minimum inhibitory concentration by dilution method. It counts as cell-based. The following applies: P. aeruginosa, dilution method, average of three replicates. Here is the method: (§1) The in vitro antimicrobial screening effects of the compounds (3 and 5a–j) were individually tested against a panel of bacteria and fungi including Staphylococcus aureus (NCIM 5021), Bacillus subtilis (NCIM 2999), Pseudomonas aeruginosa (NCIM 5029), Escherichia coli (NCIM 2574), Candida. albicans (NCIM 3471), and Aspergillus flavus (NCIM 524). Microbial strains were cultured overnight at 37°C in nutrient and potato dextrose agar medium. All the pure microbial strains were obtained from National Chemical Laboratory (NCL), Pune, India.
(§2) The minimum inhibitory concentration of the synthesized compounds was determined by dilution method. The compounds were dissolved and then diluted using DMSO; two-fold serial concentrations of the compounds were employed to determine the MIC. In this method, the test concentrations of chemically synthesized compounds were made from 5 to 125 μg/mL.

Series [2] relates to Staphylococcus aureus (NCIM 5021). Described as above. It counts as cell-based. The following applies: S. aureus, dilution method, average of three replicates. The method, then: as §1, §2
Series [3] deals with Aspergillus flavus (NCIM 524). The series is described as above. The conditions noted are these: A. flavus, dilution method, average of three replicates. It counts as cell-based. The method, then: as §1, §2
Series [4] has as its system A. niger. Described as above. It counts as cell-based. The conditions noted are these: A. niger, dilution method, average of three replicates. Here is the method: [The procedure below names another organism; the source lists this organism under the same test.] as §1, §2
For series [5], the system named is Bacillus subtilis (NCIM 2999). The description is as above. It counts as cell-based. The following applies: B. subtilis, dilution method, average of three replicates. The method, then: as §1, §2
Series [6] concerns Escherichia coli (NCIM 2574). The series is described as above. It counts as cell-based. The following applies: E. coli, dilution method, average of three replicates. Here is the method:
as §1, §2

The subject of series [7] is Pseudomonas aeruginosa (NCIM 5029). Description: agar disc diffusion, zone of inhibition. In kind it is cell-based. The following applies: P. aeruginosa, discs 6 mm, test compounds 100 µg/mL in DMSO, standards 10 µg/disc, 37°C 24 h, average of three replicates; for zone of inhibition at 100 µg/mL: Pseudomonas aeruginosa, NCIM5029, read-out: zone of inhibition. Here is the method:
as §1
(§3) The antibacterial activity of compounds was determined by agar disc diffusion method. Briefly, a suspension of tested bacterial strains was spread on the nutrient agar medium and potato dextrose agar for fungi. The discs (6 mm in diameter) impregnated with test chemicals each dissolved in concentration (100 μg/mL in DMSO) were placed on the inoculated agar and these plates were kept at 4°C for 2 h. The plate was incubated at 37°C for 24 h in case of bacteria and 48 h at 28°C in case of fungi. streptomycin (10 μg/disc) and fluconazole (10 μg/disc) were used as the standards for antibacterial and antifungal activity, respectively. All the samples were performed in triplicate and the zone of inhibition was measured in millimeters.
A general note: Agar diffusion results depend on both activity and mobility in agar.

Series [8] relates to Staphylococcus aureus (NCIM 5021). Description: agar disc diffusion, zone of inhibition. The conditions noted are these: S. aureus, discs 6 mm, test compounds 100 µg/mL in DMSO, standards 10 µg/disc, 37°C 24 h, average of three replicates; for zone of inhibition at 100 µg/mL: Staphylococcus aureus, NCIM5021, read-out: zone of inhibition. It counts as cell-based. The method, then: as §1, §3

Series [9] deals with Aspergillus flavus (NCIM 524). Description: agar disc diffusion, zone of inhibition. In kind it is cell-based. The conditions noted are these: A. flavus, discs 6 mm, test compounds 100 µg/mL in DMSO, standards 10 µg/disc, 28°C 48 h, average of three replicates; for zone of inhibition at 100 µg/mL: Aspergillus flavus, NCIM524, read-out: zone of inhibition. Here is the method: as §1, §3

The test system of series [10] is A. niger. As to the kind of experiment: agar disc diffusion, zone of inhibition. It counts as cell-based. The following applies: A. niger, discs 6 mm, test compounds 100 µg/mL in DMSO, standards 10 µg/disc, 28°C 48 h, average of three replicates; for zone of inhibition at 100 µg/mL: Aspergillus niger, read-out: zone of inhibition. The method, then:
[The procedure below names another organism; the source lists this organism under the same test.] as §1, §3

The test system of series [11] is Bacillus subtilis (NCIM 2999). Description: agar disc diffusion, zone of inhibition. It counts as cell-based. The following applies: B. subtilis, discs 6 mm, test compounds 100 µg/mL in DMSO, standards 10 µg/disc, 37°C 24 h, average of three replicates; for zone of inhibition at 100 µg/mL: Bacillus subtilis, NCIM2999, read-out: zone of inhibition. Here is the method:
as §1, §3

Series [12] deals with Escherichia coli (NCIM 2574). Description: agar disc diffusion, zone of inhibition. In kind it is cell-based. The conditions noted are these: E. coli, discs 6 mm, test compounds 100 µg/mL in DMSO, standards 10 µg/disc, 37°C 24 h, average of three replicates; for zone of inhibition at 100 µg/mL: Escherichia coli, NCIM2574, read-out: zone of inhibition. Here is the method:
as §1, §3

Series [13] can be described thus: DPPH free radical scavenging activity. The following applies: DPPH 0.1 mM, absorbance at 517 nm; triplicate, mean ± SD. Here is the method: The capacity to scavenge the stable free radical 2,2-diphenyl-1-picrylhydrazyl (DPPH) was monitored according to the Blois method. The test samples (10–100 μL) were mixed with 1 mL of DPPH (0.1 mM) solution and filled up with methanol to a final volume of 4 mL. Absorbance of the resulting solution was measured at 517 nm in a visible spectrophotometer (Model 166, Systronics, India). The free radical scavenging rate of the reaction solution was calculated as a percentage (%) of DPPH decolouration using the equation (1) I(%)=(Ablank−Asample/Ablank)×100, where A blank is the absorbance of the control reaction mixture excluding the test compounds, and A sample is the absorbance of the test compounds. Radical scavenging potential was expressed as IC50 value, which represents the sample concentration at which 50% of the DPPH radicals were scavenged. Tests were carried out in triplicate and the results were expressed as mean values ± standard deviations.
DPPH radical scavenging activity evaluation is a standard assay in antioxidant activity studies and offers a rapid technique for screening the radical scavenging activity of specific compounds [24]. The free radical scavenging activity of newly synthesized compounds was tested by their ability to bleach the stable radical DPPH. The activity was monitored by following the absorption at 517 nm in a visible spectrophotometer. In the presence of any free radical scavenger, this odd electron pairs up and causes the diminishing of absorption band which is proportional to the number of electrons taken up. The activity was studied at different concentrations for each compound. […] Resulting from a color change from purple to yellow the absorbance decreased when the antioxidant molecule can quench DPPH free radical through donation of hydrogen atom or by electron donating to form a stable DPPH molecule.

Series [14] can be described thus: superoxide radical scavenging assay (NBT, xanthine-xanthine oxidase system). It counts as biochemical. The following applies: NBT reduction, pH 7.8, 560 nm, three replicates. The method, then:
Superoxide radical scavenging activity was measured as described by Kovala-Demertzi et al., (2004). The assay is based on the reduction of nitroblue tetrazolium (NBT) by superoxide ions generated by the xanthine-xanthine oxidase system (X–XO). The reaction system contained 0.2 mM xanthine and 0.6 mM NBT in 0.1 M phosphate buffer, pH 7.8. The tested compounds were dissolved in methanol. The reaction was started by addition of XO (0.07 U mL^−1), an activity which allowed to yield the absorbance change between 0.03 and 0.04 per minute, at 560 nm. The extent of NBT reduction was followed spectrophotometrically, by measuring the increase of the absorbance at 560 nm. All the experiments were replicated three times. The IC50 of each compound was defined as the concentration which inhibited 50% of the NBT reduction by O2 ^•− produced in the X–XO system.
Superoxide anion radical is normally initially formed, and its effects can be magnified because it produces other kinds of free radicals and oxidizing agents. The enzymatic superoxide anion radical was generated by the xanthine/xanthine oxidase reaction system. The production of superoxide was estimated by the nitroblue tetrazolium method. […] Differently, in the m-position, methoxy and hydroxyl groups act as an electron-withdrawing properties, ([…]), which are possible for providing a destabilizing effect.

Setting [15] is: Pseudomonas aeruginosa, NCIM5029, read-out: MIC.
The mark [16] stands for this setting: Staphylococcus aureus, NCIM5021, read-out: MIC.
Setting [17] is: Aspergillus flavus, NCIM524, read-out: MIC.
The mark [18] stands for this setting: Aspergillus niger, read-out: MIC.
[19] abbreviates: Bacillus subtilis, NCIM2999, read-out: MIC.
Where [20] appears, read: Escherichia coli, NCIM2574, read-out: MIC.

In turn, `CC(=O)N(C(=O)c1ccccc1C)c1ccc(N=Cc2cc3ccccc3o2)cc1` [Compound 5f, N-acetyl-N-(4-((benzofuran-2-ylmethylene)amino)phenyl)-2-methylbenzamide] registered a melting point of 187 °C. For the same compound, the minimal inhibitory concentration (MIC) in series [1] (setting [15]) was 100 µg/mL (≈ 252 µM). Further, the minimum inhibitory concentration (MIC) in series [2] (setting [16]) came to 50 µg/mL (≈ 126 µM). Besides, the MIC in series [3] (setting [17]) was found to be 75 µg/mL (≈ 189 µM). In [4] (setting [18]), the MIC came out at 100 µg/mL (≈ 252 µM). Besides, the MIC in series [5] (setting [19]) is 50 µg/mL (≈ 126 µM). Also, the MIC in series [6] (setting [20]) is 100 µg/mL (≈ 252 µM). Moreover, in series [7], the zone of inhibition at 100 µg/mL was determined as 10 mm. Besides, in [8], the zone of inhibition at 100 µg/mL turned out to be 10 mm. The zone of inhibition at 100 µg/mL in series [9] worked out at 10.2 mm. Besides, the zone of inhibition at 100 µg/mL in [10] is 12 mm. For the same compound, the zone of inhibition at 100 µg/mL in series [11] worked out at 8 mm. For the same compound, the zone of inhibition at 100 µg/mL in series [12] is 11 mm. In addition, the “IC50 DPPH” value in series [13] came to 53 ± 0.04 µg/mL (≈ 134 µM). In addition, the “IC50 Superoxide” value in [14] was determined as 49 ± 0.17 µg/mL (≈ 124 µM).
As for `CC(=O)N(C(=O)OCc1ccccc1Cl)c1ccc(N=Cc2cc3ccccc3o2)cc1` [Compound 5d, 2-chlorobenzylacetyl(4-((benzofuran-2-ylmethylene)amino)phenyl)carbamate], the MIC in series [1] amounted to 50 µg/mL (≈ 112 µM); in series [2], 30 µg/mL (≈ 67.1 µM); in series [3], 40 µg/mL (≈ 89.5 µM); in series [4], 25 µg/mL (≈ 55.9 µM); in series [5], 50 µg/mL (≈ 112 µM); in series [6], 50 µg/mL (≈ 112 µM). Also, the zone of inhibition in [7] stood at 13 mm; in series [8], 12 mm; in series [9] it was 11 mm; in series [10] it was 13.7 mm; in series [11], 14 mm; in series [12], 10 mm. Moreover, the “IC50 DPPH” value in series [13] is listed as 48.9 ± 0.11 µg/mL (≈ 109 µM). Besides, the “IC50 Superoxide” value in series [14] came to 55.3 ± 0.04 µg/mL (≈ 124 µM).
`COc1ccc(O)c(C(C)(C)C)c1` [BHA, butylated hydroxyanisole, reference compound]: the “IC50 Superoxide” value in series [14] is 13.4 ± 0.29 µg/mL (≈ 74.3 µM).
Regarding `CC(=O)Nc1ccc(N=Cc2cc3ccccc3o2)cc1` [Compound 3, N-(4-((benzofuran-2-ylmethylene)amino)phenyl)acetamide], the MIC was > 100 µg/mL in series [1] (setting [15]); 75 µg/mL (≈ 269 µM) in series [2] (setting [16]); 75 µg/mL (≈ 269 µM) in series [3] (setting [17]); 75 µg/mL (≈ 269 µM) in [4] (setting [18]); 75 µg/mL (≈ 269 µM) in [5] (setting [19]); > 100 µg/mL in series [6] (setting [20]). For the same compound, the zone of inhibition at 100 µg/mL worked out at 10 mm in series [7]; 8 mm in series [8]; 12.5 mm in series [9]; 12.4 mm in series [10]; 7 mm in series [11]; 11 mm in [12]. In [13], the “IC50 DPPH” value stood at 95.3 ± 0.76 µg/mL (≈ 342 µM). In series [14], the “IC50 Superoxide” value is 85.1 ± 0.33 µg/mL (≈ 306 µM).
`OC(Cn1cncn1)(Cn1cncn1)c1ccc(F)cc1F` [Fluconazole, fluconazole, reference compound]: the minimal inhibitory concentration (MIC) in series [3] (setting [17]) and in series [4] (setting [18]) was 5 µg/mL (≈ 16.3 µM) each time. Besides, the zone of inhibition at 100 µg/mL in [9] turned out to be 19 mm; in series [10] it was 16 mm.
In the case of `[H]/N=C(/N)N[C@H]1[C@H](O)[C@@H](O)[C@H](O[C@@H]2O[C@@H](C)[C@](O)(C=O)[C@H]2O[C@@H]2O[C@@H](CO)[C@H](O)[C@@H](O)[C@@H]2NC)[C@@H](N/C(N)=N\[H])[C@@H]1O` [Streptomycin, streptomycin, reference compound], the MIC in [1] (setting [15]), in series [2] (setting [16]), in series [5] (setting [19]) and in series [6] (setting [20]) was 5 µg/mL (≈ 8.6 µM) throughout. Besides, the zone of inhibition at 100 µg/mL in series [7] turned out to be 14 mm; in series [8] it was 14.1 mm; in [11] it was 13.4 mm; in [12], 16.5 mm.
As for `O=C1O[C@H]([C@@H](O)CO)C(O)=C1O` [AA, Ascorbic acid, reference compound], in [13], the “IC50 DPPH” value was found to be 12.6 ± 0.43 µg/mL (≈ 71.5 µM).

The values above are taken from PMC3767324, “Synthesis, Characterization, and BSA Binding Studies of Some New Benzamides Related to Schiff Base” (ISRN Organic Chemistry, 2013).
